# From patent US12729377B2, “RNAi agents and compositions for inhibiting expression of angiopoietin-like 3 (ANGPTL3), and methods of use” (Arrowhead Pharmaceuticals, Inc., priority 2017, dated 2026)
# In the oligonucleotide strings, read from the 5' end, every base follows the letter of its sugar. An asterisk marks phosphorothioate; unmarked linkages are phosphodiester. Other units and linkages are bracketed, terminal groups are in braces. A string of capitals states the bases alone. {NAG37} = tridentate N-acetyl-galactosamine targeting ligand, structure (NAG37)s; [invAb] = inverted abasic unit; m = 2'-O-methyl; f = 2'-fluoro
# How the values were obtained:
# [1] = tested on: ANGPTL3 gene; test: Example 4: serum triglycerides in mice; type: in vivo
# Experimental: (§1) To assess the in vivo activity of ANGPTL3 RNAi agents that are designed to target additional positions on the ANGPTL3 gene, six- to eight-week-old female C57bl/6 mice were used. Pre-dose serum samples were taken at day −1 after a four hour fast. At day 1, each mouse was given a single subcutaneous administration of 200 μl containing either 1 mg/kg (mpk) or 0.5 mg/kg (mpk) of an ANGPTL3 RNAi agent in D5W (dextrose in 5% water), or control (D5W) with no RNAi agent, according to the dosing groups recited in Table 17.
# (§2) Each of the RNAi agents included a modified sequence and an N-acetyl-galactosamine-containing targeting ligand conjugated to the 5′ terminal end of the sense strand. (See Tables 3, 4, and 5 for modified sequences and targeting ligand structures). The injections were performed between the skin and muscle (i.e. subcutaneous injections) into the loose skin over the neck and shoulder area. Three (3) mice in each group were tested (n=3). Serum was collected on days 8, 15, 22, 29, and day 43 (Groups 1-3, 9, and 11-13 only). Mice were fasted for four hours prior to each collection. ANGPTL3 protein levels in serum were measured by ELISA assay (R&D Systems), according to the manufacturer's recommendations. Triglycerides, high-density lipoprotein (HDL), and total cholesterol in serum were measured on a Cobas® Integra 400 (Roche Diagnostics), according to the manufacturer's recommendations.
# (§3) The ANGPTL3 protein levels, triglyceride levels, HDL levels, and total cholesterol levels for each animal were normalized. For normalization, the level of ANGPTL3 protein, triglyceride, HDL, and total cholesterol, respectively, for each animal at a time point, was divided by the pre-treatment level of expression in that animal (in this case at day −1) to determine the ratio of expression “normalized to pre-treatment.” Expression at a specific time point was then normalized to the D5W control group by dividing the “normalized to pre-treatment” ratio for an individual animal by the mean “normalized to pretreatment” ratio of all mice in the D5W control group.
# [2] = tested on: ANGPTL3 gene; test: Example 4: serum HDL in mice; type: in vivo, C57bl/6 mice
# Experimental: as §1, §2, §3
# [3] = tested on: ANGPTL3 gene; test: Example 4: serum LDL in mice; type: in vivo, C57bl/6 mice; conditions: for Avg LDL, normalized to pre-treatment and control: 1.0 mg/kg single SC injection on day 1, serum, n=3
# Experimental: as §1, §2, §3
# [4] = tested on: ANGPTL3 gene; test: Example 4: serum total cholesterol in mice; type: in vivo, C57bl/6 mice
# Experimental: as §1, §2, §3
# [5] = tested on: ANGPTL3 protein; test: Example 4: serum ANGPTL3 protein by ELISA in mice; type: in vivo, C57bl/6 mice; conditions: for Avg ANGPTL3 (Average ANGPTL3 Protein Normalized to Pre-Treatment and Control): 1.0 mg/kg single subcutaneous dose on day 1, serum, female C57bl/6 mice
# Experimental: as §1, §2, §3
# [6] = tested on: ANGPTL3 gene; test: Example 7: serum total cholesterol in mice; type: in vivo, C57bl/6 mice; parameters: key: ratio: (level/pre-treatment day -1 level) ÷ mean of D5W control group
# Experimental: (§4) To further assess the in vivo activity of additional ANGPTL3 RNAi agents that are designed to target position 304 on the ANGPTL3 gene, six- to eight-week-old female C57bl/6 mice were used. Pre-dose serum samples were taken at day −1 after a four hour fast. At day 1, each mouse was given a single subcutaneous administration of 200 μl containing 0.5 mg/kg (mpk) of an ANGPTL3 RNAi agent in D5W (dextrose in 5% water), or control (D5W) with no RNAi agent, according to the dosing groups recited in Table 31.
# as §2, with “22,” for “22, 29,”, “29.” for “day 43 (Groups 1-3, 9, and 11-13 only).”, “Triglycerides, total cholesterol,” for “Triglycerides,”, “low-density lipoprotein (LDL)” for “total cholesterol”
# (§5) The ANGPTL3 protein levels, triglyceride levels, total cholesterol levels, HDL levels, and LDL levels for each animal were normalized. For normalization, the level of ANGPTL3 protein, triglyceride, HDL, and total cholesterol, respectively, for each animal at a time point, was divided by the pre-treatment level of expression in that animal (in this case at day −1) to determine the ratio of expression “normalized to pre-treatment.” Expression at a specific time point was then normalized to the D5W control group by dividing the “normalized to pre-treatment” ratio for an individual animal by the mean “normalized to pretreatment” ratio of all mice in the D5W control group.
# [7] = tested on: ANGPTL3 protein; test: Example 7: serum ANGPTL3 protein by ELISA in mice; type: in vivo, C57bl/6 mice; parameters: key: ratio: (level/pre-treatment day -1 level) ÷ mean of D5W control group
# Experimental: as §4
# as §2, with “22,” for “22, 29,”, “29.” for “day 43 (Groups 1-3, 9, and 11-13 only).”, “Triglycerides, total cholesterol,” for “Triglycerides,”, “low-density lipoprotein (LDL)” for “total cholesterol”
# as §5
# [8] = tested on: ANGPTL3 gene; test: Example 7: serum LDL in mice; type: in vivo; parameters: key: ratio: (level/pre-treatment day -1 level) ÷ mean of D5W control group; conditions: 0.5 mg/kg single SC injection day 1, female C57bl/6 mice, n=3, ratio to D5W control
# Experimental: as §4
# as §2, with “22,” for “22, 29,”, “29.” for “day 43 (Groups 1-3, 9, and 11-13 only).”, “Triglycerides, total cholesterol,” for “Triglycerides,”, “low-density lipoprotein (LDL)” for “total cholesterol”
# as §5
# [9] = tested on: ANGPTL3 gene; test: Example 7: serum triglycerides in mice; type: in vivo, C57bl/6 mice; parameters: key: ratio: (level/pre-treatment day -1 level) ÷ mean of D5W control group
# Experimental: as §4
# as §2, with “22,” for “22, 29,”, “29.” for “day 43 (Groups 1-3, 9, and 11-13 only).”, “Triglycerides, total cholesterol,” for “Triglycerides,”, “low-density lipoprotein (LDL)” for “total cholesterol”
# as §5
# [10] = tested on: ANGPTL3 gene; test: Example 7: serum HDL in mice; type: in vivo; parameters: key: ratio: (level/pre-treatment day -1 level) ÷ mean of D5W control group; conditions: 0.5 mg/kg single SC injection day 1, female C57bl/6 mice, n=3, ratio to D5W control
# Experimental: as §4
# as §2, with “22,” for “22, 29,”, “29.” for “day 43 (Groups 1-3, 9, and 11-13 only).”, “Triglycerides, total cholesterol,” for “Triglycerides,”, “low-density lipoprotein (LDL)” for “total cholesterol”
# as §5
# [11] = Day 8, 1.0 mg/kg single SC injection on day 1, n=3
# [12] = Day 15, 1.0 mg/kg single SC injection on day 1, n=3
# [13] = Day 22, 1.0 mg/kg single SC injection on day 1, n=3
# [14] = Day 29, 1.0 mg/kg single SC injection on day 1, n=3
# [15] = Day 43, 1.0 mg/kg single SC injection on day 1, n=3
# [16] = Day 8, 0.5 mg/kg single SC injection on day 1, n=3
# [17] = Day 15, 0.5 mg/kg single SC injection on day 1, n=3
# [18] = Day 22, 0.5 mg/kg single SC injection on day 1, n=3
# [19] = Day 29, 0.5 mg/kg single SC injection on day 1, n=3
substance,measurement,setting,value
"AD05487: RNAi agent duplex: antisense AM07233-AS, sense AM07232-SS (antisense mU*fA*mC*fUmGfAmUfCmAfAmAfUmAfUmGfUmUfGmAfG*mU; sense {NAG37}*[invAb]*mAmCmUmCmAmAmCmAfUfAfUmUmUmGmAmUmCmAmGmUmA*[invAb])",Avg TG (Average Triglycerides Normalized to Pre-Treatment and Control),"[1]; Day 8, 1.0 mg/kg single subcutaneous dose on day 1, female C57bl/6 mice",0.776
same,Avg TG (Average Triglycerides Normalized to Pre-Treatment and Control),"[1]; Day 15, 1.0 mg/kg single subcutaneous dose on day 1, female C57bl/6 mice",0.912
same,Avg TG (Average Triglycerides Normalized to Pre-Treatment and Control),"[1]; Day 22, 1.0 mg/kg single subcutaneous dose on day 1, female C57bl/6 mice",0.761
same,Avg TG (Average Triglycerides Normalized to Pre-Treatment and Control),"[1]; Day 29, 1.0 mg/kg single subcutaneous dose on day 1, female C57bl/6 mice",0.556
same,Avg TG (Average Triglycerides Normalized to Pre-Treatment and Control),"[1]; Day 43, 1.0 mg/kg single subcutaneous dose on day 1, female C57bl/6 mice",0.757
same,"Avg HDL, normalized to pre-treatment and control",[2]; [11],0.716
same,"Avg HDL, normalized to pre-treatment and control",[2]; [12],0.918
same,"Avg HDL, normalized to pre-treatment and control",[2]; [13],0.658
same,"Avg HDL, normalized to pre-treatment and control",[2]; [14],0.745
same,"Avg HDL, normalized to pre-treatment and control",[2]; [15],0.934
same,"Avg LDL, normalized to pre-treatment and control",[3]; Day 8,0.916
same,"Avg LDL, normalized to pre-treatment and control",[3]; Day 15,1.125
same,"Avg LDL, normalized to pre-treatment and control",[3]; Day 22,0.845
same,"Avg LDL, normalized to pre-treatment and control",[3]; Day 29,0.744
same,"Avg LDL, normalized to pre-treatment and control",[3]; Day 43,0.989
same,LDL levels reduced,"[3]; day 29, single 1 mg/kg subcutaneous, C57bl/6 mice",~20%
same,"Avg Total Chol, normalized to pre-treatment and control",[4]; [11],0.728
same,"Avg Total Chol, normalized to pre-treatment and control",[4]; [12],0.944
same,"Avg Total Chol, normalized to pre-treatment and control",[4]; [13],0.697
same,"Avg Total Chol, normalized to pre-treatment and control",[4]; [14],0.560
same,"Avg Total Chol, normalized to pre-treatment and control",[4]; [15],0.923
same,Avg ANGPTL3 (Average ANGPTL3 Protein Normalized to Pre-Treatment and Control),[5]; Day 8,0.173
same,Avg ANGPTL3 (Average ANGPTL3 Protein Normalized to Pre-Treatment and Control),[5]; Day 15,0.170
same,Avg ANGPTL3 (Average ANGPTL3 Protein Normalized to Pre-Treatment and Control),[5]; Day 22,0.138
same,Avg ANGPTL3 (Average ANGPTL3 Protein Normalized to Pre-Treatment and Control),[5]; Day 29,0.226
same,Avg ANGPTL3 (Average ANGPTL3 Protein Normalized to Pre-Treatment and Control),[5]; Day 43,0.477
same,ANGPTL3 protein normalized to pre-treatment and control,"[5]; day 15, single 1 mg/kg subcutaneous, C57bl/6 mice",0.170
same,ANGPTL3 protein normalized to pre-treatment and control,"[5]; day 22, single 1 mg/kg subcutaneous, C57bl/6 mice",0.138
same,knockdown of ANGPTL3 protein,"[5]; days 15 and 22, single 1 mg/kg subcutaneous, C57bl/6 mice",~75%
"AD05777: RNAi agent duplex: antisense AM07235-AS, sense AM07610-SS (antisense UACUGAUCAAAUAUGUUGAGC; sense GCUCAACNUNUUUGAUCAGUA; (NAG37)s GalNAc ligand; RNAi agent antisense strand modified sequence; RNAi agent sense strand modified sequence; modified_base 8, 10 n = 2′-O-methyl-2-aminoadenosine-3′-phosphate)","Avg Total Chol, normalized to pre-treatment and control",[6]; [16],0.797
same,"Avg Total Chol, normalized to pre-treatment and control",[6]; [17],0.800
same,"Avg Total Chol, normalized to pre-treatment and control",[6]; [18],0.794
same,"Avg Total Chol, normalized to pre-treatment and control",[6]; [19],0.995
same,"Avg ANGPTL3, normalized to pre-treatment and control",[7]; [16],0.297
same,"Avg ANGPTL3, normalized to pre-treatment and control",[7]; [17],0.246
same,"Avg ANGPTL3, normalized to pre-treatment and control",[7]; [18],0.257
same,"Avg ANGPTL3, normalized to pre-treatment and control",[7]; [19],0.345
same,"Avg LDL, normalized to pre-treatment and control",[8]; Day 8,0.886
same,"Avg LDL, normalized to pre-treatment and control",[8]; Day 15,0.869
same,"Avg LDL, normalized to pre-treatment and control",[8]; Day 22,0.966
same,"Avg LDL, normalized to pre-treatment and control",[8]; Day 29,1.224
same,"Avg TG, normalized to pre-treatment and control",[9]; [16],0.755
same,"Avg TG, normalized to pre-treatment and control",[9]; [17],0.702
same,"Avg TG, normalized to pre-treatment and control",[9]; [18],0.700
same,"Avg TG, normalized to pre-treatment and control",[9]; [19],0.648
same,"Avg HDL, normalized to pre-treatment and control",[10]; Day 8,0.784
same,"Avg HDL, normalized to pre-treatment and control",[10]; Day 15,0.768
same,"Avg HDL, normalized to pre-treatment and control",[10]; Day 22,0.801
same,"Avg HDL, normalized to pre-treatment and control",[10]; Day 29,1.008
